Several values for one entry are separate records, joined by “and”; a condition that tells them apart may be missing. Identical values can stand only once. Entries after “also recorded” stand apart in the source; their conditions may differ.
Experiments:
activated neutrophils = assay: dose-response survival assay of activated neutrophils (Trypan blue dye exclusion); format: cell-based; details: live cells counted by Trypan blue dye exclusion; listed as 6g8-humab; read-out: IC50, inhibition of activated neutrophil survival
Text: FIG. 6 depicts a graph comparison of functional activity of anti-DEspR fully humanized 6g8 mAb, 6g8-humab, and prototype murine anti-DEspR 6g8 mAb, 6g8-mumab.
FIGS. 17A-17C depict anti-DEspR-mab (hu6g8 mab). FIG. 17A depicts a diagram of DEspR, murine precursor mabs and humanized IgG and IgG4 mabs. Hu6g8 is notated as 6g8g7-hu-IgG4 raised against epitope 2, spanning the putative binding domain.
Described herein are the advantages of anti-DEspR mAb targeted AECs. DEspR, the dual endothelin1/signal peptide receptor,^9 is a validated target on human activated neutrophils and NETs. Hu6g8 binds human activated neutrophils (FIG. 18A) and NETs (FIG. 18B), as confirmed by Western Blot analysis of DEspR protein in human kidney (K), and activated neutrophil samples, act-Ns (FIG. 18C). Humanized anti-DEspR-mab (hu6g8 mab) is an ideal targeting moiety. Hu6g8 is the multi-species Human/NHPrimate/Rat reactive humanized-deimmunized anti-DEspR-mab with a hinge-stabilized IgG4S228P/kappa Fc region (FIG. 17A) to avoid (ADCC-antibody dependent cell-mediated cytotoxicity, CDC-complement dependent cytotoxicity), and to eliminate loss of targeting upon Fab arm exchange typical of native IgG4 isotype. […] Through recombinant DNA technology, the antibody design incorporates: a) avoidance of T-cell epitopes for low immunogenicity; b) optimization of heavy and light chain interactions for stability of variable domains; and, c) exclusion of destabilizing post-translational modification sites [e.g., deamidation, oxidation]. The targeting of DEspR^+ NETs, but sparing of DEspR(−) quiescent neutrophils via the anti-DEspR mAb is also novel. […] The use of human neutrophil-elastase cleavable linker is advantageous as this connector-peptide can be added by recombinant technology and HNE is enriched on NETs and actually a reason for the injurious properties of NETs. HNE is desirable for local therapeutic delivery [Owen C A, Campbell E J. J Leukocyte Biol 1999, 65 (2) 137-150], has specificity for small uncharged amino acids particularly alanine (A) and valine (V) [Meers P. Adv Drug Delivery Rev. 2001. 53 (3) 265-272]. […] The advantages of all three in an AEC is novel and robust as the targeted delivery and release of DNAse 1 on NETs can attain in vivo efficacy of what has been shown in vitro, the induction of macrophage uptake-and-clearance of NETs upon DNAse 1 digest of NETs DNA. In summary, targeting the intravascular NETs sites. The humanized anti-DEspR-mab with a hinge-stabilized IgG4/kappa Fc region to avoid Fab arm exchange in vivo and ensuing loss of targeting was selected. Additionally, this avoids immune effector functions of IgG1 mAbs (ADCC, CDC), which would worsen endothelial injury. […]

[1] = tested on: chronic kidney disease in Tg25+ male rats; assay: CKD in Tg25+ male rats fed a HSD; format: in vivo, rat; details: hu-6g8 3 mg/kg IV at D0, D7, D14 and D21, Mean ± SD
[2] = tested on: chronic kidney disease in Dahl S female rats; assay: CKD in Dahl S female rats fed a HSD; format: in vivo, rat; details: for albuminuria, effect in words / urinary albumin creatinine ratio (UACR), effect in words: 3 mg/kg iv × 1 dose, after 7 days, moderate-severe CKD; for Albuminuria / Creatinine Clearance / UACR (urinary albumin/urinary creatinine ratio) / Urinary Exosome Excretion: Mean ± SD
Text: Legend: hu-6g8, humanized anti-DEspR monoclonal antibody, HSD, high salt diet induced via 2% NaCl water to drink ad lib; CKD, Dahl salt-sensitive hypertensive rats with chronic kidney disease with moderate nephrosclerosis (Raij scores˜300) induced with a high salt diet (2% NaCl); control, non-treated age- and sex-matched CKD rats.

[3] = complete blood counts in Panc1-CSC xenograft (CDX) tumor model; format: in vivo, rat; details: CBC weekly from day 21, vs non-treated controls
Protocol: Complete blood counts (CBC) were measured weekly starting day 21-1 week after treatment onset on day 14 (14 days after Panc1-CSC xenograft (CDX) tumor establishment).

[4] = PK study in Panc1 xenograft mice; format: in vivo; details: 15 mg/kg i.v. (n=3)
[5] = tested on: DEspR+/CD11b+ neutrophils; assay: ex vivo treatment of ARDS patient whole blood, neutrophil survival (FACS); format: cell-based, human; design: baseline DEspR+/CD11b+ neutrophil percentage: concentration or dose not given beside the values; details: for Observed decrease in neutrophil survival: 10 μg/ml; for baseline DEspR+/CD11b+ neutrophil percentage: equals baseline DEspR+/CD11b+ neutrophils
Protocol: Neutrophils were gated for unique size/granularity properties via FSC (size) and SSC (granularity) gating. […] FSC, forward side scatter. SSC, side scatter. N=4-5 replicates; mean+/−SD. Whole blood incubated at 37 C for 24 hours (reg incubator, rotating, in HEPES buffer) for A02 and A03. 37 C for 6 hours for A04, A05, and A06. ABTM-468(cho) at 10 ug/mL. *, P=0.0286 Mann-Whitney Rank Sum Test. ARDS patients survivors: A01, A04, A05, A06. ARDS non-survivor: A02.

Panc1 xenograft = Panc1 xenograft model survival; details: in vivo

hu-6g8: fully humanized anti-DEspR mAb with a S228P hinge-stabilized IgG4/kappa FC region
IC50 (activated neutrophils): < 8 nM and 7.7 nM | Albuminuria ([1]; D14): 217 ± 87 mg/kg/day | Creatinine Clearance ([1]; D14): 279 ± 82 µL/min | UACR (urinary albumin/urinary creatinine ratio) ([1]; D14): 8309 ± 3731 | Urinary Exosome Excretion ([1]; D14): 771 ± 220 mg/kg/day | Albuminuria ([1]; D28): 164.8 ± 86 mg/kg/day | Creatinine Clearance ([1]; D28): 268 ± 30 µL/min | UACR (urinary albumin/urinary creatinine ratio) ([1]; D28): 5567 ± 2210 | Urinary Exosome Excretion ([1]; D28): 651 ± 191 mg/kg/day | albuminuria, effect in words [2]: decreased | urinary albumin creatinine ratio (UACR), effect in words [2]: decreased | albuminuria, effect in words ([2]; listed as ABTM-468): decreased; also recorded: reduced | urinary albumin creatinine ratio (UACR), effect in words ([2]; listed as ABTM-468): decreased; also recorded: reduced | Albuminuria ([2]; D7 (day of dosing, baseline)): 404 ± 190 mg/kg/day | Creatinine Clearance ([2]; D7 (day of dosing, baseline)): 104 ± 35 µL/min | UACR (urinary albumin/urinary creatinine ratio) ([2]; D7 (day of dosing, baseline)): 25450 ± 8980 | Urinary Exosome Excretion ([2]; D7 (day of dosing, baseline)): 663 ± 224 mg/kg/day | Albuminuria ([2]; D14, hu-6g8 3 mg/kg IV at D7): 92.5 ± 95 mg/kg/day | Creatinine Clearance ([2]; D14, hu-6g8 3 mg/kg IV at D7): 168 ± 118 µL/min | UACR (urinary albumin/urinary creatinine ratio) ([2]; D14, hu-6g8 3 mg/kg IV at D7): 2285 ± 2337 | Urinary Exosome Excretion ([2]; D14, hu-6g8 3 mg/kg IV at D7): 876 ± 348 mg/kg/day | numbers of quiescent neutrophils (neutropenia side effect) ([3]; treatment onset day 14): does not cause decreased numbers of quiescent neutrophils | platelet counts [3]: does not cause decreased platelet counts | red blood cell counts [3]: does not cause decreased platelet counts or red blood cell counts | half-life [4]: 40.8 h | Observed decrease in neutrophil survival ([5]; patient A02 (Died), incubation 24 hrs, 79 hrs from ARDS diagnosis, baseline DEspR+/CD11b+ 59.2%, P 0.029, listed as anti-DEspR humanized IgG4S228P antibody): decreased survival | baseline DEspR+/CD11b+ neutrophil percentage ([5]; patient A02): 59.2% | Observed decrease in neutrophil survival ([5]; patient A03 (DNR, D.), incubation 24 hrs, 96 hrs from diagnosis, baseline DEspR+/CD11b+ 1.5%): No effect | baseline DEspR+/CD11b+ neutrophil percentage ([5]; patient A03): 1.5% | Observed decrease in neutrophil survival ([5]; patient A04 (Surv), incubation 6 hrs, 96 hrs from diagnosis, baseline DEspR+/CD11b+ 0.9%, listed as ABTM-468): No effect | Observed decrease in neutrophil survival ([5]; patient A04 (Surv), incubation 6 hrs, 96 hrs from diagnosis, baseline DEspR+/CD11b+ 0.9%, listed as anti-DEspR humanized IgG4S228P antibody): no effect | baseline DEspR+/CD11b+ neutrophil percentage ([5]; patient A04): 0.9% | Observed decrease in neutrophil survival ([5]; patient A05 (Surv), incubation 6 hrs, 72 hrs from diagnosis, baseline DEspR+/CD11b+ 3%, listed as ABTM-468): No effect | Observed decrease in neutrophil survival ([5]; patient A05 (Surv), incubation 6 hrs, 72 hrs from diagnosis, baseline DEspR+/CD11b+ 3%, listed as anti-DEspR humanized IgG4S228P antibody): no effect | baseline DEspR+/CD11b+ neutrophil percentage ([5]; patient A05): 3% | Observed decrease in neutrophil survival ([5]; patient A06 (Surv), incubation 6 hrs, 48 hrs from diagnosis, baseline DEspR+/CD11b+ 16.1%, n.s., listed as anti-DEspR humanized IgG4S228P antibody): Some efficacy is observed but variable | baseline DEspR+/CD11b+ neutrophil percentage ([5]; patient A06): 16.1% | survival (Panc1 xenograft): increased survival

From US10849966B2, “Methods for treating netosis and neutrophil activation” (TRUSTEES OF BOSTON UNIVERSITY, priority 2017, dated 2020)
